This note sets out measurements from patent publication US7772251B2, “N-sulphonylated amino acid derivatives, method for the production and use thereof” (The Medicines Company (Leipzig) GmbH, priority 2003, dated 2010).

One test deals with T1, matriptase (Homo sapiens, UniProt Q9Y5Y6).
T1 construct: Met-Lys-(His)6 (N, cleaved yes); made in house; host or cells: Escherichia coli BL21 (DE3), vector pET24
T1 sequence (Q9Y5Y6 615-854 limits assumed): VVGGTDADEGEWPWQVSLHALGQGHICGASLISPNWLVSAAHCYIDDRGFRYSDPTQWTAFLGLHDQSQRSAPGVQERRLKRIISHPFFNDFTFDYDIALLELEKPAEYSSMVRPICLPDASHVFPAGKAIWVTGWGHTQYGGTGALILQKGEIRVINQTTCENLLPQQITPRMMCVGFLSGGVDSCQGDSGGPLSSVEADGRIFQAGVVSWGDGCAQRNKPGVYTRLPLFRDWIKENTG
The test is described as follows: Determination of Ki values for the inhibition of matriptase (chromogenic substrate CH3SO2-D-HHT-Gly-Arg-pNA). The format is biochemical. As to conditions: 25° C, pH 8.0, Dixon method, average of three determinations. On the procedure: Preparation of the Catalytic Domain of Matriptase
The steps were in detail:
Activation: Since a correctly processed N terminus is a precondition for the activity of serine proteases, it was necessary to delete the peptide MK(His)6 to activate the refolded matriptase. For this purpose, the refolding mixture was incubated with 2.5 mU per 50 μg of protein of activated DAPase™ (Qiagen) at 30° C. for 2 h, and the activated matriptase was separated from the non-activated matriptase and the DAPase by metal chelate chromatography.
The proteolytic activity was detected by cleavage of the chromogenic substrate Pefachrome tPA (Pentapharm).
`N=C(N)c1cccc(CC(NS(=O)(=O)c2cccc3ccccc23)C(=O)N2CCC(CCN)CC2)c1` (stereo not drawn) [Compound 39]: the affinity, expressed as Ki, was 170 nM. For `N=C(N)c1cccc(CC(NC(=O)CNS(=O)(=O)c2ccc3ccccc3c2)C(=O)N2CCC(C(=O)NCCCNC(=O)OCc3ccccc3)CC2)c1` (stereo not drawn) [Compound 47], the Ki (usually the equilibrium dissociation constant of an inhibitor or competing ligand from its target) was determined as 3900 nM. Regarding `N=C(N)c1cccc(CC(NC(=O)CNS(=O)(=O)c2ccc(S(=O)(=O)N3CCOCC3)cc2)C(=O)N2CCN(C(=O)CCN)CC2)c1` (stereo not drawn) [Compound 50], the affinity corresponds to a Ki of 3500 nM. In turn, `N=C(N)NCCC(=O)N1CCN(C(=O)[C@H](Cc2cccc(C(=N)N)c2)NS(=O)(=O)c2ccc3cc4ccccc4cc3c2)CC1` [Compound 11, anthracenesulfonyl-Phe(3-Am)-Pzd-CO—CH2—CH2-guanidino] registered a Ki of 44 nM.

In turn, `N=C(N)CC(=O)N1CCN(C(=O)C(Cc2cccc(C(=N)N)c2)NS(=O)(=O)c2ccc3ccccc3c2)CC1` (stereo not drawn) [Compound 62] returned a Ki of 1100 nM. Take `N=C(N)c1cccc(CC(NS(=O)(=O)c2ccc(C3CCCCC3)cc2)C(=O)N2CCC(CCN)CC2)c1` (stereo not drawn) [Compound 45]: the Ki stood at 140 nM. In turn, `N=C(N)c1cccc(CC(NS(=O)(=O)c2ccc3ccccc3c2)C(=O)N2CC(C(=O)N3CCNCC3)C2)c1` (stereo not drawn) [Compound 66] had a Ki of 13000 nM. In the case of `N=C(N)c1cccc(CC(NS(=O)(=O)c2ccc(C3CCCCC3)cc2)C(=O)N2CCN(C(=O)CCN)CC2)c1` (stereo not drawn) [Compound 17], the Ki is 140 nM. Turning to `N=C(N)c1cccc(CC(NS(=O)(=O)c2ccc3c(c2)CCCC3)C(=O)N2CCN(C(=O)CCN)CC2)c1` (stereo not drawn) [Compound 14], the Ki was 400 nM. On to `N=C(N)CCNC(=O)C1CCN(C(=O)C(Cc2cccc(C(=N)N)c2)NC(=O)CNS(=O)(=O)c2ccc3ccccc3c2)CC1` (stereo not drawn) [Compound 49], for which the Ki worked out at 160 nM. Consider `N=C(N)c1cccc(CC(NS(=O)(=O)c2cccc3c2CCCC3)C(=O)N2CCN(C(=O)CCN)CC2)c1` (stereo not drawn) [Compound 16], for which the inhibition constant (Ki) was determined as 990 nM.

For `N=C(N)c1cccc(CC(NS(=O)(=O)c2ccc(C3CCCCC3)cc2)C(=O)N2CCN(C(=N)N)CC2)c1` (stereo not drawn) [Compound 55], the Ki came to 980 nM. Take `N=C(N)c1cccc(CC(NS(=O)(=O)c2ccc3c(c2)C(=O)c2ccccc2C3=O)C(=O)N2CCN(C(=O)CCN)CC2)c1` (stereo not drawn) [Compound 2]: the Ki turned out to be 160 nM. The compound `N=C(N)c1cccc(CC(NC(=O)CNS(=O)(=O)c2ccc3ccccc3c2)C(=O)N2CCC(C(=O)NCCCN)CC2)c1` (stereo not drawn) [Compound 48] came in with a Ki of 360 nM.

`N=C(N)c1cccc(CC(NC(=O)CNS(=O)(=O)c2ccc3ccccc3c2)C(=O)N2CCN(C(=O)CCN)CC2)c1` (stereo not drawn) [Compound 40] displayed a Ki of 7200 nM. Compound `N=C(N)NCCNC(=O)C1CCN(C(=O)C(Cc2cccc(C(=N)N)c2)NS(=O)(=O)c2ccc3c(c2)C(O)c2ccccc2C3O)CC1` (stereo not drawn) [Compound 32] showed a Ki of 9.8 nM.

The compound `N=C(N)c1cccc(CC(NS(=O)(=O)CCc2cccc3ccccc23)C(=O)N2CCC(CCN)CC2)c1` (stereo not drawn) [Compound 42] had an inhibition constant (Ki) of 360 nM.

On to `CC(C)c1cc(C(C)C)c(S(=O)(=O)NC(Cc2cccc(C(=N)N)c2)C(=O)N2CCN(C(=O)C3CCN(C(=O)OC(C)(C)C)CC3)CC2)c(C(C)C)c1` (stereo not drawn) [Compound 65], for which affinity was put at a Ki of 830 nM. Take `CC(C)(C)c1ccc(S(=O)(=O)NC(Cc2cccc(C(=N)N)c2)C(=O)N2CCN(C(=O)CCN)CC2)cc1` (stereo not drawn) [Compound 21]: the Ki came out at 470 nM. The same measure, in the same setting: to `N=C(N)NCCC1CCN(C(=O)C(Cc2cccc(C(=N)N)c2)NS(=O)(=O)c2cccc3ccccc23)CC1` (stereo not drawn) [Compound 41] belongs 74 nM. Still for that read-out and setting: to `N=C(N)c1cccc(CC(NS(=O)(=O)c2ccc(C3CCCCC3)cc2)C(=O)N2CCC(C(=O)N3CCN(C(=N)N)CC3)CC2)c1` (stereo not drawn) [Compound 54] belongs 32 nM; to `CC(C)c1cc(C(C)C)c(S(=O)(=O)NC(Cc2cccc(C(=N)N)c2)C(=O)N2CCN(C(=O)CCCNC(=N)N)CC2)c(C(C)C)c1` (stereo not drawn) [Compound 7], 56 nM; to `N=C(N)CCNC(=O)C1CCN(C(=O)C(Cc2cccc(C(=N)N)c2)NS(=O)(=O)c2ccc3ccccc3c2)CC1` (stereo not drawn) [Compound 35], 160 nM.

`N=C(N)c1cccc(CC(NS(=O)(=O)c2ccc(-c3ccccc3)cc2)C(=O)N2CCN(C(=O)CCN)CC2)c1` (stereo not drawn) [Compound 19] displayed a Ki of 600 nM.

`N=C(N)NCCC1CCN(C(=O)C(Cc2cccc(C(=N)N)c2)NC(=O)CNS(=O)(=O)c2ccc3c(c2)Cc2ccccc2C3)CC1` (stereo not drawn) [Compound 68]: the Ki is 38 nM.

`N=C(N)c1cccc(CC(NS(=O)(=O)Cc2ccc3ccccc3c2)C(=O)N2CCN(C(=O)CCN)CC2)c1` (stereo not drawn) [Compound 25] showed a Ki of 2400 nM. Consider `N=C(N)NCCC(=O)N1CCN(C(=O)C(Cc2cccc(C(=N)N)c2)NC(=O)CNS(=O)(=O)c2ccc(S(=O)(=O)N3CCOCC3)cc2)CC1` (stereo not drawn) [Compound 51], for which the affinity, expressed as Ki, was 890 nM. As for `N=C(N)c1cccc(CC(NC(=O)CNS(=O)(=O)c2ccc3ccccc3c2)C(=O)N2CCC(CCN)CC2)c1` (stereo not drawn) [Compound 44], the affinity corresponds to a Ki of 21000 nM. Compound `N=C(N)c1cccc(CC(NS(=O)(=O)c2ccc3ccccc3c2)C(=O)N2CCN(C(=O)CCN)CC2)c1` (stereo not drawn) [Compound 12] showed a Ki of 830 nM.

The compound “2,4,6-triisopropylphenylsulfonyl-Phe(3Am)-iNip-NH—CH2—CH2-guanidino [Compound 34]” registered a Ki of 140 nM.

As for `N=C(N)c1cccc(CC(NS(=O)(=O)c2ccc3ccccc3c2)C(=O)N2CC(C(=O)N3CCN(C(=N)N)CC3)C2)c1` (stereo not drawn) [Compound 67], the Ki was determined as 3400 nM. Regarding `N=C(N)NCCC(=O)N1CCN(C(=O)C(Cc2cccc(C(=N)N)c2)NS(=O)(=O)c2ccc3c(c2)CCCC3)CC1` (stereo not drawn) [Compound 15], the Ki amounted to 300 nM. In turn, `N=C(N)NCCC(=O)N1CCN(C(=O)C(Cc2cccc(C(=N)N)c2)NS(=O)(=O)Cc2ccc3ccccc3c2)CC1` (stereo not drawn) [Compound 26] yielded a Ki of 400 nM. `CC(C)(C)c1ccc(S(=O)(=O)NC(Cc2cccc(C(=N)N)c2)C(=O)N2CCN(C(=O)CCNC(=N)N)CC2)cc1` (stereo not drawn) [Compound 22] had a Ki of 200 nM.

As for `N=C(N)c1cccc(CC(NS(=O)(=O)c2ccc(C3CCCCC3)cc2)C(=O)N2CCNCC2)c1` (stereo not drawn) [Compound 58], the affinity corresponds to a Ki of 550 nM. `N=C(N)CC(=O)N1CCN(C(=O)C(Cc2cccc(C(=N)N)c2)NS(=O)(=O)c2ccc(C3CCCCC3)cc2)CC1` (stereo not drawn) [Compound 61] yielded a Ki of 380 nM. As to `Cc1c(C)c(S(=O)(=O)NC(Cc2cccc(C(=N)N)c2)C(=O)N2CCN(C(=O)CCN)CC2)c(C)c2c1OC(C)(C)C2` (stereo not drawn) [Compound 23], the Ki was 3300 nM.

Regarding `N=C(N)NCCC1CCN(C(=O)C(Cc2cccc(C(=N)N)c2)NS(=O)(=O)CCc2cccc3ccccc23)CC1` (stereo not drawn) [Compound 43], the Ki amounted to 180 nM. Take `N=C(N)c1cccc(C[C@H](NS(=O)(=O)c2ccc3cc4ccccc4cc3c2)C(=O)N2CCN(C(=O)CCN)CC2)c1` [Compound 10, anthracenesulfonyl-Phe(3-Am)-Pzd-β-Ala]: the Ki stood at 270 nM.

Regarding `N=C(N)c1cccc(CC(NS(=O)(=O)c2ccc(C3CCCCC3)cc2)C(=O)N2CCN(C(=O)C3CCNCC3)CC2)c1` (stereo not drawn) [Compound 60], the affinity, expressed as Ki, was 310 nM. “2,4,6-triisopropylphenylsulfonyl-Phe(3-Am)-iNip-DAE-H [Compound 3]” gave a Ki of 53 nM. `N=C(N)c1cccc(C[C@H](NS(=O)(=O)c2ccc3ccccc3c2)C(=O)N2CCC(CCN)CC2)c1` [Compound 36, 2-Nas-Phe(3-Am) 4(aminoethyl)piperidide]: the affinity, expressed as Ki, was 110 nM. Compound `N=C(N)c1cccc(CC(NS(=O)(=O)c2ccc3c(c2)C(=O)c2ccccc2C3=O)C(=O)N2CCN(C(=O)C3CNC3)CC2)c1` (stereo not drawn) [Compound 27] came in with a Ki of 460 nM.

Another test concerns matriptase-expressing colon carcinoma cell line DLD-1. The test is described as follows: Inhibition of invasive growth (Matrigel invasion assay). Format: cell-based. The note with it: proHGF-stimulated; inhibitor 30 μM; 48 hours; FIG. 1. An excerpt: A common test system for invasive growth at the cellular level is the Matrigel invasion assay. This entails cells being applied to an artificial extracellular matrix and investigation of how many cells migrate through the latter within a defined period.
It is shown here by way of example for the matriptase inhibitors 37 and 54 that invasive growth is influenced and the migration of matriptase-expressing colon carcinoma cell line DLD-1 through Matrigel is inhibited:
The wells of a ‘Transwell’ plate were each coated with 10 μg of Matrigel and 160 000 DLD-1 cells (Dexter et al, Cancer Research 39: 1020-1025 (1979)) in 100 μl of medium (RPMI 1640, with 2% Ultroser HY serum substituted) were applied to each, invasive growth was stimulated by adding ProHGF in 400 μl of medium with and without inhibitor (30 μM). After incubation at 37° C. and 5% CO2 for 48 hours, the cells which had migrated through the matrix were fixed, stained and photographed at 100× magnification.
Take `N=C(N)NCCC1CCN(C(=O)[C@H](Cc2cccc(C(=N)N)c2)NS(=O)(=O)c2ccc3ccccc3c2)CC1.O=C(O)C(F)(F)F.O=C(O)C(F)(F)F` [Compound 37, 2-Nas-Phe(3-Am) 4(guanidinoethyl)piperidide]: the “inhibition of migration/invasion of DLD-1 cells through Matrigel” value was “inhibited”.

The next test has as its system matriptase-expressing prostate carcinoma cells (PC-3). The test is described as follows: Inhibition of proHGF-induced cell scattering (scatter assay). The format is cell-based. As to conditions: proHGF-stimulated; inhibitor 3 μM; 6 days; FIG. 2. An excerpt: Because of its ability to induce the detachment of cells from an isolated assemblage and the dissemination of the cells, HGF is also referred to as scatter factor. This function can be detected at the cellular level with the aid of the so-called scatter assay. This entails the cells being seeded and their dissemination stimulated by the addition of HGF being recorded after a defined time. […] It is shown below by way of example for the matriptase inhibitors 37 and 54 that activation of proHGF by cellular matriptase is prevented and the scattering of proHGF-stimulated cells is reduced.
For this purpose, 500 matriptase-expressing prostate carcinoma cells (PC-3) were seeded in each well of a 96-well plate and incubated (37° C., 5% CO2) in 100 μl of medium without fetal calf serum (Nut Mix. F-12, 2% Ultroser HY) overnight, and then the scattering was stimulated by adding proHGF with and without matriptase inhibitors (3 μM). After 6 days, the cells were fixed and stained, and representative sections were photographed at 100× magnification.
Take `N=C(N)NCCC1CCN(C(=O)[C@H](Cc2cccc(C(=N)N)c2)NS(=O)(=O)c2ccc3ccccc3c2)CC1.O=C(O)C(F)(F)F.O=C(O)C(F)(F)F` [Compound 37, 2-Nas-Phe(3-Am) 4(guanidinoethyl)piperidide]: the “inhibition of proHGF-induced scattering of PC-3 cells” value is “inhibit the proHGF-induced scattering of PC-3 cells”.
